According to US20040044000A1, “Isoquinoline derivatives as matrix metalloproteinase inhibitors” (priority 2002, published 2004):

What was measured:
Format in all cases: biochemical
[1] = biological target: T1, MMP-13 catalytic domain (MMP-13CD) (Homo sapiens, UniProt P45452); test: Inhibition of MMP-13 catalytic domain (thiopeptolide substrate hydrolysis); details: Biological Table 1; read-out: MMP-13CD IC50
T1 construct: use the catalytic domain of the MMP-13 enzyme, namely matrix metalloproteinase-13 catalytic domain (“MMP-13CD”), rather than the corresponding full-length enzyme
From the text: (§1) The assays measure the amount by which a test compound reduces the hydrolysis of a thiopeptolide substrate catalyzed by a matrix metalloproteinase enzyme. Such assays are described in detail by Ye et al., in Biochemistry, 1992;31(45):11231-11235, which is incorporated herein by reference. One such assay is described below in Biological Method 1.
Some of the particular methods described below use the catalytic domain of the MMP-13 enzyme, namely matrix metalloproteinase-13 catalytic domain (“MMP-13CD”), rather than the corresponding full-length enzyme, MMP-13. It has been shown previously by Ye Qi-Zhuang, Hupe D., and Johnson L. (Current Medicinal Chemistry, 1996;3:407-418) that inhibitor activity against a catalytic domain of an MMP is predictive of the inhibitor activity against the respective full-length MMP enzyme.
(§2) Thiopeptolide substrates show virtually no decomposition or hydrolysis at or below neutral pH in the absence of a matrix metalloproteinase enzyme. A typical thiopeptolide substrate commonly utilized for assays is Ac-Pro-Leu-Gly-thioester-Leu-Leu-Gly-OEt. A 100 μL assay mixture will contain 50 mM of N-2-hydroxyethylpiperazine-N′-2-ethanesulfonic acid buffer (“HEPES,” pH 7.0), 10 mM CaCl2, 100 μM thiopeptolide substrate, and 1 mM 5,5′-dithio-bis-(2-nitro-benzoic acid) (DTNB). The thiopeptolide substrate concentration may be varied, for example from 10 to 800 μM to obtain Km and Kcat values. The change in absorbance at 405 nm is monitored on a Thermo Max microplate reader (molecular Devices, Menlo Park, Calif.) at room temperature (22° C.). The calculation of the amount of hydrolysis of the thiopeptolide substrate is based on E412=13600 M^−1 cm^−1 for the DTNB-derived product 3-carboxy-4-nitrothiophenoxide. Assays are carried out with and without matrix metalloproteinase inhibitor compounds, and the amount of hydrolysis is compared for a determination of inhibitory activity of the test compounds.
(§3) Test compounds were evaluated at various concentrations in order to determine their respective IC50 values, the micromolar concentration of compound required to cause a 50% inhibition of catalytic activity of the respective enzyme.

[2] = biological target: MMP-3 catalytic domain (MMP-3CD) (Homo sapiens, UniProt P08254); test: Inhibition of MMP-3 catalytic domain (thiopeptolide substrate hydrolysis, MES pH 6.0)
Chain of MMP-3 catalytic domain (MMP-3CD) (P08254 100-272 limits assumed, species assumed): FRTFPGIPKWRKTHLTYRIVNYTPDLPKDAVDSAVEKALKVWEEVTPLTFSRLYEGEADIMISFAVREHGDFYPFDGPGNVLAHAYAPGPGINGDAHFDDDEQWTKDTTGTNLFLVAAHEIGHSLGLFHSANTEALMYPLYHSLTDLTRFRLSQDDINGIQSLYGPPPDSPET
From the text: as §1, §2, §3
It should be appreciated that the assay buffer used with MMP-3CD was 50 mM N-morpholinoethane sulfonate (“MES”) at pH 6.0 rather than the HEPES buffer at pH 7.0 described above.

[3] = biological target: T2, MMP-17 catalytic domain (MMP-17CD) (Homo sapiens, UniProt Q9ULZ9); test: Inhibition of MMP-17 catalytic domain (thiopeptolide substrate hydrolysis)
T2 construct: MMP-3 catalytic domain, MMP-12 catalytic domain, MMP-14 catalytic domain, and MMP-17 catalytic domain
T2 sequence (Q9ULZ9 126-295 limits assumed): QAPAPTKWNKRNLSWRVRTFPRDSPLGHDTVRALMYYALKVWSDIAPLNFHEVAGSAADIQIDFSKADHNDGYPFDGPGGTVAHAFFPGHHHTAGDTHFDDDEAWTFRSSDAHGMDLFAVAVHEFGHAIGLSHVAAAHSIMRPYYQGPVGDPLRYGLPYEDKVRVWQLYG
From the text: as §1, §2, §3

[4] = biological target: T3, MMP-12 catalytic domain (MMP-12CD) (Homo sapiens, UniProt P39900); test: Inhibition of MMP-12 catalytic domain (thiopeptolide substrate hydrolysis)
T3 construct: MMP-3 catalytic domain, MMP-12 catalytic domain, MMP-14 catalytic domain, and MMP-17 catalytic domain
T3 sequence (P39900 106-263 limits assumed, species assumed): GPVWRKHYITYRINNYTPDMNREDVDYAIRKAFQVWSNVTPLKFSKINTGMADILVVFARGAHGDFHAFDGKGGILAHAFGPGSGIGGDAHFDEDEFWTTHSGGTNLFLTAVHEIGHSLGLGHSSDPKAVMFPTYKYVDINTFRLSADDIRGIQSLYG
From the text: as §1, §2, §3
(§4) The test described above for the inhibition of MMP-13 may also be adapted and used to determine the ability of the compounds of Formula I to inhibit the matrix metalloproteases MMP-1, MMP-2, MMP-3, MMP-7, MMP-9, MMP-12 and MMP-14.

[5] = biological target: MMP-14 catalytic domain (MMP-14CD) (Homo sapiens, UniProt P50281); test: Inhibition of MMP-14 catalytic domain (thiopeptolide substrate hydrolysis)
From the text: as §1, §2, §3, §4

SMILES	IC50 [1] [µM]	IC50 [2] [µM]	IC50 [3] [µM]	IC50 [4] [µM]	IC50 [5] [µM]
O=C(NCc1ccc(-c2csnn2)cc1)c1ccc2ccn(Cc3ccc(-c4nn[nH]n4)cc3)c(=O)c2c1 [Example 64, 1-oxo-2-[4-(2H-tetrazol-5-yl)benzyl]-1,2-dihydroisoquinoline-7-carboxylic Acid 4-[1,2,3]thiadiazol-4-yl-benzylamide]	0.068	16	> 10		
O=c1c2cc(C#CCc3ccccc3)ccc2ccn1Cc1ccc(-c2nn[nH]n2)cc1 [Example 18, 7-(3-phenylprop-1-ynyl)-2-[4-(2H-tetrazol-5-yl)benzyl]-2H-isoquinolin-1-one]	0.0029	4	> 30	> 30	> 30
COc1cccc(CNC(=O)c2ccc3ccn(Cc4ccc(-c5nn[nH]n5)cc4)c(=O)c3c2)c1 [Example 59, 1-oxo-2-[4-(2H-tetrazol-5-yl)benzyl]-1,2-dihydroisoquinoline-7-carboxylic Acid 3-methoxy-benzylamide]	0.0029	> 10	> 30	> 10	> 30
O=C(NCc1ccncc1)c1ccc2ccn(Cc3ccc(-c4nn[nH]n4)cc3)c(=O)c2c1 [Example 57, 1-oxo-2-[4-(2H-tetrazol-5-yl)benzyl]-1,2-dihydroisoquinoline-7-carboxylic Acid (pyridin-4-ylmethyl)amide]	0.04	> 100	> 100	> 30	> 100
O=C1CC(NC(=O)c2ccc(Cn3ccc4ccc(C#CCc5ccccc5)cc4c3=O)cc2)=NN1 [Example 22, N-(5-oxo-4,5-dihydro-1H-pyrazol-3-yl)-4-[1-oxo-7-(3-phenylprop-1-ynyl)-1H-isoquinolin-2-ylmethyl]benzamide]	0.019	4.1	14	> 100	16
COc1cccc(CNC(=O)c2ccc3ccn(Cc4ccc(S(C)(=O)=O)cc4)c(=O)c3c2)c1 [Example 53, 2-(4-methane-sulfonylbenzyl)-1-oxo-1,2-dihydro-isoquinoline-7-carboxylic Acid 3-methoxy-benzylamide]	0.21	> 30	> 100	61	> 100
N#Cc1ccc(Cn2ccc3ccc(C#CCc4ccccc4)cc3c2=O)cc1 [Example 19]	0.049	5	> 100	> 100	28
O=C(NN1CCCCC1)c1ccc(Cn2ccc3ccc(C#CCc4ccccc4)cc3c2=O)cc1 [Example 20, 4-[1-oxo-7-(3-phenylprop-1-ynyl)-1H-isoquinolin-2-ylmethyl]-N-piperidin-1-yl-benzamide]	0.039	8	2.3	> 30	> 30
O=C(NCCN1CCOCC1)c1ccc(Cn2ccc3ccc(C#CCc4ccccc4)cc3c2=O)cc1 [Example 21, N-(2-morpholin-4-yl-ethyl)-4-[1-oxo-7-(3-phenylprop-1-ynyl)-1H-isoquinolin-2-ylmethyl]-benzamide]	0.067	22	> 3	> 100	> 100
COc1cccc(CNC(=O)c2ccc3ccn(Cc4ccc(F)c(F)c4)c(=O)c3c2)c1 [Example 24]	0.093	> 30	> 30	14	0.093
COc1cc(CNC(=O)c2ccc3ccn(Cc4ccc(S(C)(=O)=O)cc4)c(=O)c3c2)ccn1 [Example 51, 2-(4-methane-sulfonylbenzyl)-1-oxo-1,2-dihydro-isoquinoline-7-carboxylic Acid (2-methoxypyridin-4-ylmethyl)amide]	0.68	> 100	> 100	> 30	> 100
COc1ccc(CNC(=O)c2ccc3ccn(Cc4ccc(F)c(F)c4)c(=O)c3c2)cc1 [Example 25]	0.33	60	> 30	> 30	> 100
COc1ccc(CNC(=O)c2ccc3ccn(Cc4ccc(-c5nn[nH]n5)cc4)c(=O)c3c2)cc1 [Example 58, 1-oxo-2-[4-(2H-tetrazol-5-yl)benzyl]-1,2-dihydroisoquinoline-7-carboxylic Acid 4-methoxy-benzylamide]	0.017	27	11	56	> 100
COc1cc(CNC(=O)c2ccc3ccn(Cc4ccc(F)c(F)c4)c(=O)c3c2)ccn1 [Example 23, 2-(3,4-difluorobenzyl)-1-oxo-1,2-dihydroisoquinoline-7-carboxylic acid (2-methoxypyridin-4-ylmethyl)amide]	0.29	> 100	> 10	> 100	> 100

Continued, values first:

IC50 [1] [µM]	IC50 [2] [µM]	IC50 [3] [µM]	IC50 [4] [µM]	IC50 [5] [µM]	SMILES
0.032	12	> 10	5	> 10	CSc1ccc(CNC(=O)c2ccc3ccn(Cc4ccc(-c5nn[nH]n5)cc4)c(=O)c3c2)cc1 [Example 61, 1-oxo-2-[4-(2H-tetrazol-5-yl)benzyl]-1,2-dihydroisoquinoline-7-carboxylic Acid 4-methyl-sulfanylbenzylamide]
0.19	> 100	> 100	> 100	> 100	O=C(O)c1ccc(Cn2ccc3ccc(C(=O)NCc4ccncc4)cc3c2=O)cc1 [Example 29, 4-{1-oxo-7-[(pyridin-4-ylmethyl)carbamoyl]-1H-isoquinolin-2-ylmethyl}benzoic Acid]
0.4	> 100	> 100	> 100	> 100	O=C(O)c1ccc(Cn2ccc3ccc(C(=O)NCc4cccnc4)cc3c2=O)cc1 [Example 30, 4-{1-oxo-7-[(pyridin-3-ylmethyl)carbamoyl]-1H-isoquinolin-2-ylmethyl}benzoic Acid]
0.03	> 100	> 100	> 100	> 100	O=C(O)c1ccc(Cn2ccc3ccc(C(=O)NCc4ccc(F)cc4)cc3c2=O)cc1 [Example 31, 4-[7-(4-fluoro-benzylcarbamoyl)-1-oxo-1H-isoquinolin-2-ylmethyl]benzoic Acid]
0.15	> 100	> 100	> 100	> 100	COc1cc(CNC(=O)c2ccc3ccn(Cc4ccc(C(=O)O)cc4)c(=O)c3c2)ccc1O [Example 32]
0.22	31	> 100	22	> 100	Cc1ccc(CNC(=O)c2ccc3ccn(Cc4ccc(-c5nn[nH]n5)cc4)c(=O)c3c2)cc1 [Example 60, 1-oxo-2-[4-(2H-tetrazol-5-yl)benzyl]-1,2-dihydroisoquinoline-7-carboxylic Acid 4-methyl-benzylamide]
0.036	> 100	74	> 100	> 100	COc1cc(CNC(=O)c2ccc3ccn(Cc4ccc(C(=O)O)cc4)c(=O)c3c2)ccn1 [Example 27, 4-{7-[(2-methoxypyridin-4-ylmethyl)carbamoyl]-1-oxo-1H-isoquinolin-2-ylmethyl}benzoic acid]
0.85	> 30	> 30	> 30	> 30	COc1ccc(CNC(=O)c2ccc3ccn(Cc4ccc(S(C)(=O)=O)cc4)c(=O)c3c2)cc1 [Example 52, 2-(4-methane-sulfonylbenzyl)-1-oxo-1,2-dihydro-isoquinoline-7-carboxylic Acid 4-methoxy-benzylamide]
